In US4016158A, “Cephalosporin derivatives” (Roussel-UCLAF, priority 1971, dated 1977):
Values after ≈ are worked out from the molar mass of the structure shown. Where two headings read alike, the source gives them in different places. One block for each compound: values may come before it.

Key:
solubility = assay type: physicochemical
Bac. Subt. = experiment: MIC, diffusion method in gelose medium at pH 7 (Table I); assay type: cell-based
Protocol: (§1) The antibiotic activity was determined by the diffusion method in a gelose medium at a pH of 7. The following Table expresses the minimum concentration of inhibition in mcg/ml (CMl) for the products against different microbial strains.

Escher. Coli UC 1020 = experiment: as above; assay type: cell-based; details: Escherichia coli
Protocol: as §1

Escher. Coli UC 1261 = experiment: as above; assay type: cell-based; details: Escherichia coli
Protocol: as §1

Staph. U.C. 1128 P(-) = experiment: as above; assay type: cell-based; details: Staph. UC 1128, penicillin resistant, read-out: minimum concentration of inhibition
Protocol: as §1

[1] = test system: Staph. aureus oxford U.C. 1061 P(+); experiment: as above; assay type: cell-based; details: Staphylococcus aureus
Protocol: as §1

Strept. Fecalis 5432 = experiment: as above; assay type: cell-based
Protocol: as §1

[2] = test system: Strept. hemoly. Todd Hewitt; experiment: as above; assay type: cell-based
Protocol: as §1

[3] = test system: Staphylococcus aureus 4546; experiment: MIC (Table II); assay type: cell-based; details: read-out: minimum inhibition concentration
Protocol: as §1
(§2) Using the same procedure as in Table I, the minimum inhibition concentration in mcg/ml was determined against different microbial strains with L(-) cis 7-[D(-)-α-aminophenylacetamido]-3-isopropyl-3-cepheme-4-carboxylic acid (product A) of Example 9.

[4] = test system: Staphylococcus aureus 889; experiment: MIC (Table II); assay type: cell-based; details: read-out: minimum inhibition concentration
Protocol: as §1, §2

[5] = test system: Staphylococcus aureus 9373; experiment: MIC (Table II); assay type: cell-based; details: read-out: minimum inhibition concentration
Protocol: as §1, §2

[6] = test system: Staphylococcus aureus 9482; experiment: MIC (Table II); assay type: cell-based; details: read-out: minimum inhibition concentration
Protocol: as §1, §2

[7] = test system: Staphylococcus aureus 9729; experiment: MIC (Table II); assay type: cell-based; details: read-out: minimum inhibition concentration
Protocol: as §1, §2

[8] = test system: Staphylococcus aureus A8P; experiment: MIC (Table II); assay type: cell-based; details: read-out: minimum inhibition concentration
Protocol: as §1, §2

Pseudomonas = experiment: MIC, diffusion method in gelose medium at pH 7 (Table I); assay type: cell-based; details: read-out: minimum concentration of inhibition
Protocol: as §1

[9] = test system: gram positive bacteria such as staphylococci and streptococci; experiment: antibacterial activity, statement; details: particularly penicillin resistant staphylococci
[10] = test system: certain gram negative bacteria, particularly coliform bacteria; experiment: antibacterial activity, statement
[11] = pH 7, read-out: minimum concentration of inhibition
[12] = Bac. Subt., pH 7, read-out: minimum concentration of inhibition
[13] = UC1020, Escher. Coli UC 1020, pH 7, read-out: minimum concentration of inhibition
[14] = UC1261, Escher. Coli UC 1261, pH 7, read-out: minimum concentration of inhibition
[15] = UC1061, Staph. aureus oxford UC 1061, penicillin sensitive, pH 7, read-out: minimum concentration of inhibition
[16] = Strept. Fecalis 5432, pH 7, read-out: minimum concentration of inhibition
[17] = Strept. hemoly. Todd Hewitt, pH 7, read-out: minimum concentration of inhibition

- solubility in ethanol (solubility): soluble
- solubility in ether (solubility): insoluble
- solubility in water (solubility): slightly soluble
SMILES: Nc1ccc(CC(=O)NC2C(=O)N3C(C(=O)O)=C(C4CCCC4)CSC23)cc1 (stereo not drawn) [Example 12, DL cis 7-p-aminophenylacetamido-3-cyclopentyl-3-cepheme-4-carboxylic acid]

SMILES: CC1=C(C(=O)O)N2C(=O)[C@@H](NC(=O)[C@H](N)c3ccccc3)[C@H]2SC1 [Cephalexin, reference compound]
- MIC (Bac. Subt.; [11]): 0.2 µg/mL (≈ 0.576 µM)
- MIC (Escher. Coli UC 1020; UC1020, pH 7, read-out: minimum concentration of inhibition): 20 µg/mL (≈ 57.6 µM)
- MIC (Escher. Coli UC 1261; UC1261, pH 7, read-out: minimum concentration of inhibition): 20 µg/mL (≈ 57.6 µM)
- MIC (Staph. U.C. 1128 P(-)): 10 µg/mL (≈ 28.8 µM)
- MIC ([1]; UC1061, pH 7, read-out: minimum concentration of inhibition): 2 µg/mL (≈ 5.76 µM)
- MIC (Strept. Fecalis 5432; [11]): 60 µg/mL (≈ 173 µM)
- MIC [2, 11]: 10 µg/mL (≈ 28.8 µM)
- MIC ([3]; Staphylococcus aureus, 4546, 24 h): 1 µg/mL (≈ 2.88 µM)
- MIC ([3]; Staphylococcus aureus, 4546, 48 h): 3 µg/mL (≈ 8.64 µM)
- MIC ([4]; Staphylococcus aureus, 889, 24 h): 5 µg/mL (≈ 14.4 µM)
- MIC ([4]; Staphylococcus aureus, 889, 48 h): 10 µg/mL (≈ 28.8 µM)
- MIC ([5]; Staphylococcus aureus, 9373, 24 h): 2 µg/mL (≈ 5.76 µM)
- MIC ([5]; Staphylococcus aureus, 9373, 48 h): 3 µg/mL (≈ 8.64 µM)
- MIC ([6]; Staphylococcus aureus, 9482, 24 h): 1 µg/mL (≈ 2.88 µM)
- MIC ([6]; Staphylococcus aureus, 9482, 48 h): 1 µg/mL (≈ 2.88 µM)
- MIC ([7]; Staphylococcus aureus, 9729, 24 h): 2 µg/mL (≈ 5.76 µM)
- MIC ([7]; Staphylococcus aureus, 9729, 48 h): 3 µg/mL (≈ 8.64 µM)
- MIC ([8]; 24 h): 2 µg/mL (≈ 5.76 µM)
- MIC ([8]; 48 h): 5 µg/mL (≈ 14.4 µM)

SMILES: CC(C)C1=C(C(=O)O)N2C(=O)[C@@H](NC(=O)Cc3ccc(N)cc3)[C@H]2SC1 (relative stereo) [Example 7, DL cis 7-p-aminophenylacetamido-3-isopropyl-3-cepheme-4-carboxylic acid]
- MIC (Bac. Subt.; [12]): 0.05 µg/mL (≈ 0.133 µM)
- MIC (Escher. Coli UC 1020; [13]): > 200 µg/mL
- MIC (Escher. Coli UC 1261; [14]): > 200 µg/mL
- MIC (Pseudomonas): > 200 µg/mL
- MIC [1, 15]: 2 µg/mL (≈ 5.33 µM)
- MIC (Strept. Fecalis 5432; [16]): > 40 µg/mL
- MIC [2, 17]: 10 µg/mL (≈ 26.6 µM)
- solubility in chloroform (solubility; chloroform): slightly soluble
- solubility in ethanol (solubility): slightly soluble
- solubility in ether (solubility): insoluble
- solubility in water (solubility): slightly soluble

SMILES: CC(C)C1=C(C(=O)O)N2C(=O)[C@@H](NC(=O)Cc3ccc([N+](=O)[O-])cc3)[C@H]2SC1 (relative stereo) [Example 6, DL cis 7-p-nitrophenylacetamido-3-isopropyl-3-cepheme-4-carboxylic acid]
- MIC (Bac. Subt.; [12]): 0.2 µg/mL (≈ 0.493 µM)
- MIC (Escher. Coli UC 1020; [13]): > 200 µg/mL
- MIC (Escher. Coli UC 1261; [14]): > 200 µg/mL
- MIC (Pseudomonas): > 200 µg/mL
- MIC (Staph. U.C. 1128 P(-)): 2 µg/mL (≈ 4.93 µM)
- MIC [1, 15]: 0.4 µg/mL (≈ 0.987 µM)
- MIC (Strept. Fecalis 5432; [16]): > 40 µg/mL
- MIC [2, 17]: 5 µg/mL (≈ 12.3 µM)
- solubility in ethanol (solubility): slightly soluble
- solubility in water (solubility): insoluble

SMILES: N[C@@H](C(=O)N[C@@H]1C(=O)N2C(C(=O)O)=C(C3CCCC3)CS[C@H]12)c1ccccc1 [Example 10, L(+) 6R, 7R 7-[R(-)-α-aminophenylacetamido]-3-cyclopentyl-3-cepheme-4-carboxylicacid]
- MIC (Bac. Subt.; [12]): 0.05 µg/mL (≈ 0.125 µM)
- MIC (Staph. U.C. 1128 P(-)): 1 µg/mL (≈ 2.49 µM)
- MIC [1, 15]: 0.4 µg/mL (≈ 0.996 µM)
- MIC (Strept. Fecalis 5432; [16]): 20 µg/mL (≈ 49.8 µM)
- MIC [2, 17]: 10 µg/mL (≈ 24.9 µM)
- solubility in ethanol (solubility): slightly soluble
- solubility in ether (solubility): insoluble
- solubility in water (solubility): slightly soluble
- activity against gram positive bacteria [9]: active
- activity against certain gram negative bacteria [10]: active

SMILES: O=C(Cc1ccc([N+](=O)[O-])cc1)NC1C(=O)N2C(C(=O)O)=C(C3CCCC3)CSC12 (stereo not drawn) [Example 11, DL cis 7-p-nitrophenylacetamido-3-cyclopentyl-3-cepheme-4-carboxylic acid]
- MIC (Bac. Subt.; [12]): 0.1 µg/mL (≈ 0.232 µM)
- MIC (Staph. U.C. 1128 P(-)): 0.4 µg/mL (≈ 0.927 µM)
- MIC [1, 15]: 0.2 µg/mL (≈ 0.464 µM)
- MIC (Strept. Fecalis 5432; [16]): > 40 µg/mL
- MIC [2, 17]: > 40 µg/mL
- solubility in ethanol (solubility): slightly soluble
- solubility in ether (solubility): insoluble
- solubility in water (solubility): insoluble

SMILES: O=C(Cc1cccs1)NC1C(=O)N2C(C(=O)O)=C(C3CCCC3)CSC12 (stereo not drawn) [Example 13, DL cis 7-(2'-thienyl)-acetamido-3-cyclopentyl-3-cepheme-4-carboxylic acid]
- MIC (Bac. Subt.; [12]): 1 µg/mL (≈ 2.55 µM)
- MIC [1, 15]: 1 µg/mL (≈ 2.55 µM)
- MIC (Strept. Fecalis 5432; [16]): 20 µg/mL (≈ 51 µM)
- MIC [2, 17]: > 40 µg/mL
- solubility in ether (solubility): insoluble
- solubility in water (solubility): slightly soluble

SMILES: CC(C)C1=C(C(=O)O)N2C(=O)[C@@H](NC(=O)Cc3cccs3)[C@H]2SC1 (relative stereo) [Example 8, DL cis 7-(2'-thienyl)-acetamido-3-isopropyl-3-cepheme-4-carboxylic acid]
- MIC (Bac. Subt.; [12]): 0.4 µg/mL (≈ 1.09 µM)
- MIC (Escher. Coli UC 1020; [13]): > 200 µg/mL
- MIC (Escher. Coli UC 1261; [14]): > 200 µg/mL
- MIC (Pseudomonas): > 200 µg/mL
- MIC (Staph. U.C. 1128 P(-)): 5 µg/mL (≈ 13.6 µM)
- MIC [1, 15]: 2 µg/mL (≈ 5.46 µM)
- MIC (Strept. Fecalis 5432; [16]): > 40 µg/mL
- MIC [2, 17]: 10 µg/mL (≈ 27.3 µM)
- solubility in ethanol (solubility): slightly soluble
- solubility in methanol (solubility; methanol): soluble
- solubility in water (solubility): insoluble
